These results are taken from US8642656B2, “Calixarene-based peptide conformation mimetics, methods of use, and methods of making” (priority 2004, dated 2014).

Data set [1] has as its system bFGF-stimulated HUVEC. Put plainly: EC proliferation, [3H]-thymidine incorporation, bFGF-stimulated HUVEC (Example 48). It counts as cell-based, human. Particulars: for IC50: bFGF-stimulated HUVEC, highest dose tested 25 μM; for activity as anti-angiogenic agents, ranking in words: library of 23 compounds. As for the experimental part:
Proliferation is expressed as mean counts per minute (cpm) of quadruplicate cultures in three independent experiments (±SEM). […] Human umbilical vein derived EC (HUVEC) were harvested from normal human umbilical cords by perfusion with 0.125% trypsin/EDTA. Harvested HUVECs were cultured in gelatin coated tissue culture flasks and subcultured 1:3 once a week in culture medium (RPM1-1640 with 20% human serum (HS), supplemented with 2 mM glutamine and 100 U/mL penicillin and 0.1 mg/mL streptomycin). Statistical analysis was performed by using the Student's t-test.

The test system of data set [2] is MA148 human ovarian carcinoma. The data set can be described thus: Proliferation of MA148 tumor cells. It counts as cell-based. As to conditions: read-out: IC50 against MA148 tumor cells.
The subject of data set [3] is chorioallantoic membrane (CAM) vasculature. The data set can be described thus: Chorioallantoic membrane (CAM) assay. As to conditions: 25 μM daily, day 10 to 13. It counts as in vivo, chicken. Here is the method: Fertilized Lohman-selected white leghorn eggs were incubated for 3 days at 37° C. and 55% relative humidity and rotated once every hour. On day 3 a rectangular window (1 cm×2 cm) was made in the eggshell. The window was covered with tape to prevent dehydration. The window allowed undisturbed observation of the developing vasculature of the CAM. On day 7 a silicon ring (10 mm diameter) was placed on the CAM to allow local drug administration within the ring. Compounds were applied daily in aliquots of 65 μl (25 μM) from day 10 to day 13. On day 14 the CAMs were photographed.

Data set [4] concerns MA148 human ovarian carcinoma. The data set can be described thus: MA148 tumor growth model in athymic mice. It counts as in vivo. As to conditions: for tumor growth inhibition: MA148, end of 28 days; for MA148 tumor growth (in words): tumor-bearing mice. As for the experimental part:
Female athymic nude mice (nu/nu, 5-6 weeks old) were used. These mice were purchased from the National Cancer Institute and allowed to acclimatize to local conditions for at least one week. Animals were given water and standard chow ad libitum, and were kept on a 12-hour light/dark cycle. All experiments were approved by the University of Minnesota Research Animal Resources ethical committee. Mice were randomized and split into three groups: 1) human serum albumin (10 mg/kg/day), 2) βpep-25 (10 mg/kg/day) and 3) peptide mimetic agent (5 mg or 10 mg/kg/day). Test compounds were diluted in DMSO and administered using osmotic mini-pumps (Durect, Cupertino, Calif.). Exponentially growing MA148 human ovarian carcinoma cells, kindly provided by Prof. Ramakrishnan (R. P. Dings et al., Cancer Res., 63, 382-385 (2003)) or B16 mouse melanoma cells were cultured in RPM1 1640 medium (Life Technologies, Grand Island, N.Y.). This medium was supplemented with 10% fetal bovine serum and 1% penicillin/streptomycin (Cellgro, Mediatech, Washington, D.C.) at 37° C and 5% CO2. One hundred microliters (100 μL) of this tumor cell suspension (2×10^7 cells/ml) was then injected subcutaneously into the right flank of each mouse. Pumps were implanted into the left flank of mice for subcutaneous administration of compound over a 28-day treatment span.
Two variants of this model were used: prevention and intervention. For the prevention variant, treatment was initiated at the time of inoculation with MA148 cells. For the intervention variant, tumors were allowed to grow to an average size of 50 mm^3 (usually day 7 post inoculation) before treatment was initiated. With either variant, animals were randomized prior to the initiation of treatment. Treatment was administered via osmotic mini-pumps (Durect, Cupertino, Calif.), which were implanted subcutaneously in the left flank of mice. Concentrated solutions of βpep-25 or DBF analogs were formulated such that the 28-day treatment period would be covered by implantation of a single pump. In each study, control groups of animals were administered either PBS or PBS containing human serum albumin.
Female athymic nude mice (nu/nu, 5-6 weeks old) or C57BL/6 male mice were purchased from the National Cancer Institute and allowed to acclimatize to local conditions for at least one week. Animals were provided water and standard chow ad libitum, and were kept on a 12 hour light/dark cycle. All experiments followed protocols approved by the University of Minnesota Research Animal Resources Ethical Committee. Exponentially growing MA148 human ovarian carcinoma cells, kindly provided by Prof. Ramakrishnan (Dings et al., Cancer Res 63, 382-385 (2003)), and B16F10 murine melanoma cells, kindly provided by Prof. Fidler, were cultured in RPM1 1640 medium (Life Technologies, Grand Island, N.Y.) (van der Schaft, et al., Faseb J 16, 1991-1993 (2002)). This medium was supplemented with 10% fetal bovine serum and 1% penicillin/streptomycin (Cellgro, Mediatech, Washington, D.C.) at 37° C. and 5% CO2. 100 μL of this tumor cell suspension (2×10^7 MA148 cells/ml and 2×10^6 B16F10 cells/ml) was then injected subcutaneously into the right hind flank of each mouse (athymic or C57BL/6, respectively).
Tumors were allowed to grow to an average size of at least 50 mm^3 before treatment was initiated, and animals were randomized prior to the initiation of treatment. Treatment was administered in one of two ways: s.c. from osmotic mini-pumps, and i.p. injection. Osmotic mini-pumps (Durect, Cupertino, Calif.) were implanted subcutaneously in the left flank of mice, and concentrated solutions of calixarene analogs or βpep-25 were formulated in PBS containing 30% (v/v) DMSO such that the 14-day or 28-day treatment period would be covered by implantation of a single pump. In each study, control groups of animals were administered either PBS (30% DMSO v/v) or PBS containing human serum albumin to control for protein content. […]

Data set [5] relates to B16F10 tumor. Put plainly: TUNEL staining for total cell apoptosis, B16F10 tumors. The format is in vivo, mice. Particulars: B16F10, 10 mg/kg; mean ± standard error, 20 images. As for the experimental part:
To assess the extent of total cell apoptosis, tumor tissue sections were stained by using the TUNEL (terminal deoxyribonucleotidyl transferase-mediated dUTP-nick-end labeling) assay, which was performed according to the manufacturer's instructions (In situ cell death detection kit, fluorescein; TUNEL, Roche). After 1-hour incubation at room temperature, slides were washed with PBS and immediately imaged using an Olympus BX-60 fluorescence microscope at 200× magnification.

Data set [6] can be described thus: Toxicity assays in tumor-bearing mice: behavior, body weight, organ morphology. The format is in vivo. As to conditions: for signs of toxicity (behavior, weight gain, hematocrit), in words: all in vivo tumor experiments. As for the experimental part:
As an indirect measurement of general toxicity, body weights of mice were monitored twice weekly, using a digital balance (Ohaus Florham, N.J.). To determine hematocrit levels, blood samples were extracted by tail vein bleedings one day after terminating treatment, and blood was collected in heparinized micro-hematocrit capillary lubes (Fisher Pittsburgh, Pa.). Samples were spun down for 10 minutes in a micro-hematocrit centrifuge (Clay-Adams; NY), and the amount of hematocrit was determined using an international microcapillary reader (IEC; Needham, Mass.).

Where [7] appears, read: 10 mg/kg/day s.c. osmotic mini-pump.

Entries after “also recorded” stand apart in the source; their conditions may differ.

With “5,11,17,23-Tetra-tert-butyl-25,27-bis(2-guanidinoethoxy)-26,28-dihydroxy calix[4]arene trifluoroacetic acid salt [Compound 27]”, the values for the IC50 in data set [1] and in data set [2] were 8000 nM and 3000 nM, respectively. Further, the “activity as anti-angiogenic agents, ranking in words” value in data set [1] was “most active as anti-angiogenic agents”. In addition, the “angiogenesis inhibition in CAM assay (in words)” value in data set [3] was “angiogenesis is inhibited”. Further, the tumor growth inhibition result in data set [4] (2.7 mg/kg/day s.c. osmotic mini-pump) and in data set [4] (setting [7]) was “about 65%” in each case. Also, in data set [4] (trifluoroacetic acid salt), the “MA148 tumor growth (in words)” value was “inhibits MA148 tumor growth; also recorded: significantly inhibited”. The compound also came in with an Apoptosis in data set [5] of 2357 ± 103 pixel counts per image. The “drop of body weights during treatment” value in data set [6] (B16 model, i.p. administration) is on record as “about 5%”. In data set [6], the “signs of toxicity (behavior, weight gain, hematocrit), in words” value is given as “did not generally show signs of toxicity”.

Take `CN(C)CCNC(=O)COc1c2cccc1Cc1cccc(c1OCC(=O)NCCN(C)C)Cc1cccc(c1OCC(=O)NCCN(C)C)Cc1cccc(c1OCC(=O)NCCN(C)C)C2` [Compound 40]: the IC50 in data set [1] is 2000 nM; in data set [2], 1000 nM. Also, the “activity as anti-angiogenic agents, ranking in words” value in data set [1] was “most active as anti-angiogenic agents”. The “angiogenesis inhibition in CAM assay (in words)” value in data set [3] was “angiogenesis is inhibited”. The figures for the tumor growth inhibition result in data set [4] (2.4 mg/kg/day s.c. osmotic mini-pump) and in data set [4] (setting [7]) were “about 65%” and 81%, respectively. Moreover, the “MA148 tumor growth (in words)” value in data set [4] is recorded as “inhibition of MA148 tumor growth”; in data set [4] (listed as KM0118 (40)), “significantly inhibited”. In data set [5], this compound returned an Apoptosis of 2807 ± 140 pixel counts per image. Besides, in data set [6], the “signs of toxicity (behavior, weight gain, hematocrit), in words” value is on record as “did not generally show signs of toxicity”.

What is called IC50 is the concentration at which inhibition is half-maximal.
